Source: patent US7763441B2, “Modulators of gluconeogenesis” (Wyeth, priority 2006, dated 2010)
Read-outs that look alike come from different tables or passages of the source.

Experiments:
[1] = test system: DUSP4 message; details: AML12, 500 μM AICAR
Method: (§1) Each gene is represented by a single row and each sample, in triplicate at each time point, by a column. […] The mean expression±STD of DUSP4 (qualifier #1428834_at) and EGR1 (qualifier #1417065_at) are illustrated graphically as well as highlighted in yellow on the cluster.
(§2) AML12 cells were maintained in DMEM/F12 medium containing 10% FCS, […], 5 ng/ml selenium and 40 ng/ml dexamethasone.
(§3) Double-stranded cDNA was synthesized starting with 5 μg of total RNA from the cells using the SuperScript System (Invitrogen, Carlsbad, Calif.). The cDNA was purified by filtration through Multiscreen filter plate (Millipore), and transcribed in vitro using T7 RNA polymerase (Epicentre, Madison, Wis.) and biotinylated nucleotides (Perkin-Elmer, Boston, Mass.). Hybridization buffer containing the spike pool reagent was added to each of the fragmented cRNA mixtures and each sample was hybridized to the Mouse Genome 430 2.0 array ([…]) or Rat Genome 230 2.0 array (RAE230) (Affymetrix, Santa Clara) at 45° C. for 18 hours as recommended by the manufacturer. The hybridized chips were washed and stained using Affymetrix Fluidics Station 450 and the EukGE-WS2v4—450 protocol as recommended by the manufacturer. The staining was performed using streptavidin-phycoerythrin conjugate (SAPE; Molecular Probes, Eugene, Oreg.), followed by biotinylated antibody against streptavidin (Vector Laboratories, Burlingame, Calif.), and then SAPE. The chips were scanned using an Affymetrix Genechip Scanner and .cel files were generated with Affymetrix Microarray Suite 5.0 (MAS 5.0) software.
(§4) Using normalized data, after removing lowly expressed genes, we performed ANOVA analysis.

[2] = test system: EGR1 message; details: AML12, 500 μM AICAR
Method: as §1, §2, §3, §4

[3] = test system: EGR1 expression; details: H4IIE, AICAR
Method: The anti-tubulin blot is a loading control.
as §3
Total RNA was isolated from these cells and hybridized on the RAE430 2.0 array and analyzed in the same manner as the AML12 cells.

[4] = test system: DUSP4 mRNA; details: H4IIE, AICAR
Excerpt: (§5) As in FIG. 2, the anti-tubulin blot is a loading control.
(§6) Taqman was utilized since the DUSP4 probe set on the RAE430 2.0 array was not as sensitive as the DUSP4 set on the MOE430 2.0 array.

[5] = test system: DUSP4 protein; details: H4IIE
Method: as §5
Lysates were prepared with a buffer containing 20 mM Tris (pH 7.5), 150 mM NaCl, 1 mM EDTA, 1 mM EGTA, 1% Triton X-100, 2.5 mM sodium pyrophosphate, 1 mM β-glycerophosphate, 1 mM sodium vanadate, and 1 μg of leupeptin/ml. 20 μg of lysate for each sample was run on NuPAGE 10% polyacrylamide bis/tris gels (Invitrogen) and transferred to PVDF membrane. Following blocking with 5% milk in TBS, anti-EGR1 (SC-110, Santa Cruz) at 1:1000 or anti alpha-tubulin (Abcam) at 1:2000 was blotted in TBS with 0.1% Tween. Goat anti-mouse HRP (Jackson Immuno-Research) was used at 1:5000 and blots were visualized by using enhanced chemiluminescence (NEN).
as §6

[6] = test system: rat PEPCK promoter; assay: PEPCK-SEAP reporter assay in H4IIE cells; assay type: cell-based
Method: FIG. 5 schematically depicts the effects of EGR1 and DUSP4 expression levels on PEPCK promoter activity. For the experiments shown in panels A and B, H4IIE hepatocytes were transfected with the PEPCK-SEAP reporter plasmid and either DUSP4 or EGR1 expression plasmids or DUSP4 or EGR1 siRNA Smartpools. 24 hours after transfection the media were changed to 0.5%FBS/DMEM for 5 hours. […] Panel A depicts the effects of EGR1 modulation on PEPCK promoter activity; panel B depicts the effects of DUSP4 modulation on PEPCK promoter activity.
(§7) Panel A is a Western blot of H4IIE cells starved for 6 hours and then treated as indicated by the chart for 2 hours. […] is a specific p38 chemical inhibitor. LPS is included as a positive control of p38 activation.
The rat PEPCK promoter (−548 to +73) was amplified from rat genomic DNA using primers 5′-[…]-3′ (SEQ ID NO:8) and 5′-[…]-3′ (SEQ ID NO:9) (Xu et al. (2003)) J. Biol. Chem. 278:30187-30192). The human G6P promoter (−1227 to +57) was amplified from human genomic DNA using primers: 5′-[…]-3′ (SEQ ID NO:10) and 5′-[…]-3′ (SEQ ID NO:11). The promoters were subsequently cloned into XhoI and HindIII sites of pSEAP-BASIC vector (Clontech).
H4IIE cells were seeded in 24-well plates and transfected at 90% confluence using Tfx-50 Reagent (Promega). 0.9 μg of each SEAP reporter and 0.2 μg of pCMV-β-gal (BD Biosciences) were included. 0.4 μg of pCMV-XL5-human-DUSP4 (NM_001394, Origene) or pCMV-Sport6-human EGR1 (BC073983, Open Biosystems), or pMEV2HA-P38-WT and P38-EE (Biomyx), or empty pCMV-Sport6 were included. SiGenome Smartpool reagents were included at […]. […] 60 μl of the media was utilized for the SEAP assay (Great EscAPe SEAP Kit, BD Biosciences) and cell lysate was used for β-gal assay (Luminescent β-galactosidase detection kit, BD Biosciences).

[7] = test system: Fao hepatoma cells; assay: Glucose production assay in Fao cells; assay type: cell-based; details: cAMP plus dexamethasone, 500 μM AICAR
Method: For the experiment shown in panel A, Fao cells were transfected with either EGR1 or DUSP4 siRNA Smartpools. […] The cells were then cultured with phenol-red and glucose free RPMI1640 with 20 mM lactate and 2mM pyruvate. After 3 hours the media was collected and glucose output was determined. The data are presented as relative glucose production with the untreated transfected cells' glucose output set as 1. The asterisk indicates key changes between samples. P-values of all changes are ≦0.01 as determined by T-test. Panel B contains Western blots of EGR1 and DUSP4 or representative samples from the glucose production assay following transfection with the indicated siRNA Smartpools. The tubulin blot is included as a loading control.
1 million Fao cells cultured in RPMI1640 with 10% FCS were transfected with siGenome SMARTpool reagents for EGR1 (#M-100247-00), DUSP4 (#M-098966-00), or siCONTROL Non-Targeting siRNA (Dharmacon) using Optifect (Invitrogen) at 25 nM final concentration. […] Medium was collected 5 hours later and subjected to glucose measurement using the Amplex® Red Glucose/Glucose Oxidase Assay Kit (Molecular Probes). Cells were lysed and protein concentration was determined. The glucose output rate was normalized by cellular protein concentration and expressed as μg glucose/mg protein/5 hr. […]

[8] = target: T1, p38 (Rattus norvegicus, UniProt P70618); assay: Western blot of p38 phosphorylation in serum starved H4IIE cells; assay type: cell-based; details: 2 hours
T1 construct: addition of cAMP to serum starved H4IIE cells for 2 hours leads to an increase in the phosphorylation of p38; endogenous in cells; host or cells: H4IIE rat hepatoma cells
T1 sequence (P70618 whole entry): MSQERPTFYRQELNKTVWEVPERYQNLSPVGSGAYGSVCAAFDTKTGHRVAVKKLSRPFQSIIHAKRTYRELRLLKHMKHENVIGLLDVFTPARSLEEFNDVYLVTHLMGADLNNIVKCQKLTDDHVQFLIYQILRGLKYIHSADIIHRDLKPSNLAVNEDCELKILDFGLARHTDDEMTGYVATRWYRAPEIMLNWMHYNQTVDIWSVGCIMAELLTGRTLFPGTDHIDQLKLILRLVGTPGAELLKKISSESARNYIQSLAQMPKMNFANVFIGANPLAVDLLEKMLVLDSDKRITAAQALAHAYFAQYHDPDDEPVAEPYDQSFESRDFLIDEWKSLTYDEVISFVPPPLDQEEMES
Method: as §7
(§8) FIG. 7A includes a Western blot probed with anti-p38 or anti-phosphor-p38 antibodies (Cell Signaling Technology) at a 1:1000 dilution.

[9] = test system: JNK; details: H4IIE cells, data not shown
Excerpt: Members of the DUSP family show differing specificities for the MAPK family of kinases. DUSP4 has been previously shown to dephosphorylate and inactivate the MAPK family members ERK and JNK, but not p38.
as §8

[10] = test system: rat DUSP4 promoter EGR1 site; details: H4IIE, AICAR 2 or 6 hours
Method: Arrows indicate sites of primers used for chromatin immunoprecipitation assay (−72 to −261 bp from the transcriptional start site).
To cross-link protein and DNA, formaldehyde was added at a 1% (vol/vol) concentration to H4IIE cells in a 100 mm dish. Fixation proceeded for 10 min at room temperature with gentle shaking and was stopped with the addition of glycine to a final concentration of 0.125M, and then the mixture was incubated at room temperature for 5 min. The cells were then washed twice with cold phosphate-buffered saline (PBS), harvested, and washed once with PBS containing PMSF. The cell pellet was lysed with immunoprecipitation assay lysis buffer (150 mM NaCl, 1% NP-40, 0.5% deoxycholate, 0.1% sodium dodecyl sulfate [SDS], 50 mM Tris [pH 8], 5 mM EDTA and protease inhibitors [1 mM PMSF, 10 μg of aprotinin/ml, 10 μg of leupeptin/ml]) and incubated on ice for 10 min. The resulting lysate was sonicated to give chromatin of an average length of 600 to 1,000 bp. The lysate was then microcentrifuged at 14,000 rpm for 10 min at 4° C. The lysate was then precleared with 50 μl of protein A beads (IPA 400; Repligen) for 15 min. Immunoprecipitations were performed overnight with 2 μg of antibody in a total volume of 500 μl at 4° C. […] A 5 μl aliquot was analyzed by PCR with Vent polymerase (NEB). […]

[11] = test system: G6P and PEPCK expression; details: rat hepatoma cells or primary hepatocytes (Lochhead et al. 2000); cited from earlier work
[12] = test system: EGR1; details: Bauer et al. 2005; cited from earlier work

Compound: NC(=O)c1ncn([C@@H]2O[C@H](CO)[C@@H](O)[C@H]2O)c1N [AICAR]
- DUSP4 message increase relative to untreated controls ([1]; 2 hours): 4 fold
- DUSP4 message increase relative to untreated controls ([1]; 6 hours): 6 fold
- DUSP4 message increase relative to untreated controls ([1]; 24 hours): 5 fold
- EGR1 increase relative to control ([2]; 2 hours): 3 fold
- EGR1 increase relative to control ([2]; 6 hours): 3 fold
- EGR1 increase relative to control ([2]; 24 hours): 2 fold
- EGR1 expression increase relative to control ([3]; 2 hours): 6 fold
- EGR1 expression increase relative to control ([3]; 6 hours): 5 fold
- EGR1 expression increase relative to control ([3]; 24 hours): 3 fold
- DUSP4 message increase ([4]; 2 hours): 20 fold
- DUSP4 message increase ([4]; 6 hours): 4 fold
- DUSP4 message increase ([4]; 24 hours): 4 fold
- Time of AICAR treatment within which DUSP4 is induced ([5]; AICAR): ≤ 2 h
- DUSP4 protein level (Western blot) ([5]; AICAR time course, decrease to more basal levels at 12 hours): increase of DUSP4 protein at 2 and 6 hours
- Inhibition of PEPCK activation at low AICAR concentration ([6]; 100 μM AICAR by itself): not sufficient to inhibit PEPCK activation
- PEPCK transcription (activation) ([6]; 100 μM AICAR, without exogenous EGR1): 12 fold
- Repression of cAMP and dexamethasone activation of PEPCK reporter ([6]; AICAR, control siRNA included): fully repressed
- Effect on cAMP activation of the PEPCK promoter ([6]; FIG. 7B): repress cAMP activation of the PEPCK promoter
- Inhibition of cAMP and dexamethasone activation of the PEPCK promoter ([6]; PEPCK-SEAP, AICAR 500 μM or DUSP4 expression vector): approximately 36 fold
- Glucose output after inhibition, distance from untreated levels [7]: ≤ 30%
- cAMP-induced phosphorylation of p38 (Western blot) [8]: inhibited
- JNK activity [9]: not inhibited
- EGR1 site of DUSP4 promoter amplified after anti-EGR1 chromatin immunoprecipitation (189 bp PCR product) [10]: amplified
- Expression of G6P and PEPCK [11]: inhibits expression G6P and PEPCK

Compound: CCCCCCCCCCCCCC(=O)O[C@@H]1[C@@H](C)[C@@]2(O)[C@@H](C=C(CO)C[C@]3(O)C(=O)C(C)=C[C@@H]23)[C@@H]2C(C)(C)[C@]12OC(C)=O [TPA, 12-O-tetradecanoylphorbol-13-acetate]
- EGR1 biosynthesis [12]: strongly upregulates EGR1 biosynthesis

Compound: SB205830
- cAMP-induced phosphorylation of p38 (Western blot) [8]: inhibited
